Assay results taken from the NIST ThermoML archive (doi:10.1021/je500498m).

Assay: xn = mol fraction of the nth substance listed
Details: for speed of sound: 100 kPa, Sing-around technique in a fixed-path interferometer; for speed of sound / viscosity / mass density: Liquid; for viscosity / mass density: 101 kPa; for viscosity: Falling or rolling sphere viscometry; for mass density: Vibrating tube method; for surface tension liquid-gas: 294.4 K, Pendant drop shape

CCCCCCCCCCCCCCCC [hexadecane] + CCc1ccccc1
Details | mass density [kg/m3] | speed of sound [m/s] | viscosity [mPa·s]
293.15 K, x2 = 0 | 773.49 | 1357.3 | 3.44
293.15 K, x2 = 0.1007 | 777.15 | 1353.4 | 3.01
293.15 K, x2 = 0.2 | 781.37 | 1349.4 | 2.63
293.15 K, x2 = 0.3002 | 786.28 | 1345.2 | 2.28
293.15 K, x2 = 0.4013 | 792.08 | 1340.7 | 1.96
293.15 K, x2 = 0.5002 | 798.81 | 1336.7 | 1.69
293.15 K, x2 = 0.6001 | 806.86 | 1333.1 | 1.43
293.15 K, x2 = 0.7002 | 816.95 | 1330.4 | 1.21
293.15 K, x2 = 0.8001 | 829.46 | 1329.3 | 1.01
293.15 K, x2 = 0.9 | 845.47 | 1331.5 | 0.83
303.15 K, x2 = 0 | 766.55 | 1320 | 2.72
303.15 K, x2 = 0.1007 | 770.16 | 1316 | 2.42
303.15 K, x2 = 0.2 | 774.31 | 1312 | 2.14
303.15 K, x2 = 0.3002 | 779.13 | 1307.8 | 1.88
303.15 K, x2 = 0.4013 | 784.83 | 1303.1 | 1.64
303.15 K, x2 = 0.5002 | 791.42 | 1298.9 | 1.42
303.15 K, x2 = 0.6001 | 799.32 | 1295 | 1.23
303.15 K, x2 = 0.7002 | 809.21 | 1291.9 | 1.05
303.15 K, x2 = 0.8001 | 821.46 | 1291.1 | 0.88
303.15 K, x2 = 0.9 | 837.13 | 1291.3 | 0.73
313.15 K, x2 = 0 | 759.63 | 1283.3 | –
313.15 K, x2 = 0.1007 | 763.17 | 1279.2 | –
313.15 K, x2 = 0.2 | 767.24 | 1275.1 | –
313.15 K, x2 = 0.3002 | 771.97 | 1270.8 | –
313.15 K, x2 = 0.4013 | 777.56 | 1266 | –
313.15 K, x2 = 0.5002 | 784.01 | 1261.6 | –
313.15 K, x2 = 0.6001 | 791.75 | 1257.4 | –
313.15 K, x2 = 0.7002 | 801.42 | 1253.8 | –
313.15 K, x2 = 0.8001 | 813.41 | 1251.3 | –
313.15 K, x2 = 0.9 | 828.73 | 1251.6 | –
323.15 K, x2 = 0 | 752.71 | 1247.3 | 1.82
323.15 K, x2 = 0.1007 | 756.18 | 1243.2 | 1.65
323.15 K, x2 = 0.2 | 760.17 | 1239 | 1.49
323.15 K, x2 = 0.3002 | 764.8 | 1234.5 | 1.34
323.15 K, x2 = 0.4013 | 770.27 | 1229.4 | 1.19
323.15 K, x2 = 0.5002 | 776.58 | 1224.8 | 1.05
323.15 K, x2 = 0.6001 | 784.14 | 1220.3 | 0.92
323.15 K, x2 = 0.7002 | 793.6 | 1216.2 | 0.8
323.15 K, x2 = 0.8001 | 805.42 | 1213.1 | 0.68
323.15 K, x2 = 0.9 | 820.29 | 1212.5 | 0.57
333.15 K, x2 = 0 | 745.79 | 1212 | 1.53
333.15 K, x2 = 0.1007 | 749.19 | 1207.7 | 1.4
333.15 K, x2 = 0.2 | 753.09 | 1203.4 | 1.28
333.15 K, x2 = 0.3002 | 757.62 | 1198.8 | 1.15
333.15 K, x2 = 0.4013 | 762.96 | 1193.6 | 1.03
333.15 K, x2 = 0.5002 | 769.13 | 1188.6 | 0.92
333.15 K, x2 = 0.6001 | 776.51 | 1183.8 | 0.81
333.15 K, x2 = 0.7002 | 785.74 | 1179.2 | 0.7
333.15 K, x2 = 0.8001 | 797.18 | 1175.5 | 0.6
333.15 K, x2 = 0.9 | 811.8 | 1173.9 | 0.52
343.15 K, x2 = 0 | 738.9 | – | 1.31
343.15 K, x2 = 0.1007 | 742.2 | – | 1.21
343.15 K, x2 = 0.2 | 746 | – | 1.1
343.15 K, x2 = 0.3002 | 750.4 | – | 1.01
343.15 K, x2 = 0.4013 | 755.6 | – | 0.9
343.15 K, x2 = 0.5002 | 761.6 | – | 0.81
343.15 K, x2 = 0.6001 | 768.9 | – | 0.71
343.15 K, x2 = 0.7002 | 777.9 | – | 0.62
343.15 K, x2 = 0.8001 | 789 | – | 0.54
343.15 K, x2 = 0.9 | 803.3 | – | 0.47
353.15 K, x2 = 0 | 731.8 | – | 1.13
353.15 K, x2 = 0.1007 | 735 | – | 1.05
353.15 K, x2 = 0.2 | 738.7 | – | 0.96
353.15 K, x2 = 0.3002 | 743 | – | 0.88
353.15 K, x2 = 0.4013 | 748.1 | – | 0.8
353.15 K, x2 = 0.5002 | 754 | – | 0.71
353.15 K, x2 = 0.6001 | 761.1 | – | 0.64
353.15 K, x2 = 0.7002 | 769.8 | – | 0.56
353.15 K, x2 = 0.8001 | 780.7 | – | 0.49
353.15 K, x2 = 0.9 | 794.5 | – | 0.43
363.15 K, x2 = 0 | 724.7 | – | 0.99
363.15 K, x2 = 0.1007 | 727.8 | – | 0.92
363.15 K, x2 = 0.2 | 731.5 | – | 0.85
363.15 K, x2 = 0.3002 | 735.6 | – | 0.78
363.15 K, x2 = 0.4013 | 740.6 | – | 0.7
363.15 K, x2 = 0.5002 | 746.3 | – | 0.63
363.15 K, x2 = 0.6001 | 753.1 | – | 0.58
363.15 K, x2 = 0.7002 | 761.6 | – | 0.51
363.15 K, x2 = 0.8001 | 772.2 | – | 0.45
363.15 K, x2 = 0.9 | 785.6 | – | 0.39
373.15 K, x2 = 0 | 717.5 | – | 0.87
373.15 K, x2 = 0.1007 | 720.6 | – | 0.82
373.15 K, x2 = 0.2 | 724.1 | – | 0.76
373.15 K, x2 = 0.3002 | 728.1 | – | 0.69
373.15 K, x2 = 0.4013 | 732.9 | – | 0.63
373.15 K, x2 = 0.5002 | 738.4 | – | 0.57
373.15 K, x2 = 0.6001 | 745.1 | – | 0.52
373.15 K, x2 = 0.7002 | 753.3 | – | 0.47
373.15 K, x2 = 0.8001 | 763.6 | – | 0.41
373.15 K, x2 = 0.9 | 776.6 | – | 0.36

Details | surface tension liquid-gas [mN/m]
x2 = 0 | 27.3
x2 = 0.2 | 27.4
x2 = 0.4013 | 27.5
x2 = 0.5002 | 27.5
x2 = 0.6001 | 27.8
x2 = 0.7002 | 28
x2 = 0.8001 | 28.2
x2 = 0.9 | 28.5
